Assay results: paper PMC8698454, “Anti-Colonization Effect of Au Surfaces with Self-Assembled Molecular Monolayers Functionalized with Antimicrobial Peptides on S. epidermidis” (Antibiotics, 2021)
Where two headings read alike, the source gives them in different places.

Tests used:
Type in all cases: cell-based
[1] = system: Escherichia coli ATCC 25922; conditions: for Antimicrobial Activity (MIC) E. coli: ATCC 25922, broth microdilution CLSI M07-A9 (1a,1b,2a,2b) or broth dilution EUCAST (1c,1d,2c,2d), 0.5-256 µg/mL tested, biological triplicate, no visual growth; for MIC E. coli ATCC 25922: Table S3
Protocol: (§1) The minimal inhibitory concentration (MIC) of peptides 1a, 1b, 2a, and 2b were determined by broth microdilution according to the Clinical Laboratory Standard Institute (CLSI) method […]-A9. The MICs of the peptides 1c, 1d, 2c, and 2d were determined by broth dilution according to the European Committee for Antimicrobial Susceptibility Testing (EUCAST). Final concentrations of 0.5-256 μg/mL were tested against a panel of reference bacteria-S. aureus (ATCC 9144), S. epidermidis (1457), E. coli (ATCC 25922), and P. aeruginosa (ATCC 27853). Each strain was tested in biological triplicate. The MIC values were defined as the lowest concentration of the peptides resulting in no visual growth.

[2] = system: Staphylococcus aureus ATCC 9144; conditions: for Antimicrobial Activity (MIC) S. aureus: ATCC 9144, broth microdilution CLSI M07-A9 (1a,1b,2a,2b) or broth dilution EUCAST (1c,1d,2c,2d), 0.5-256 µg/mL tested, biological triplicate, lowest concentration with no visual growth; for MIC S. aureus ATCC 9144: Table S3
Protocol: as §1

[3] = system: Staphylococcus epidermidis 1457; conditions: for MIC S. epidermidis 1457: Table S3; for Antimicrobial Activity (MIC) S. epidermidis: strain 1457, broth microdilution CLSI M07-A9 (1a,1b,2a,2b) or broth dilution EUCAST (1c,1d,2c,2d), 0.5-256 µg/mL tested, biological triplicate, no visual growth
Protocol: as §1

[4] = system: Pseudomonas aeruginosa ATCC 27853; conditions: for Antimicrobial Activity (MIC) P. aeruginosa: ATCC 27853, broth microdilution CLSI M07-A9 (1a,1b,2a,2b) or broth dilution EUCAST (1c,1d,2c,2d), 0.5-256 µg/mL tested, biological triplicate, no visual growth; for MIC P. aeruginosa ATCC 27853: Table S3
Protocol: as §1

[5] = technical replicate 1, biological replicate BR1
[6] = technical replicate 1, biological replicate BR2
[7] = technical replicate 1, biological replicate BR3
[8] = technical replicate 2, biological replicate BR1
[9] = technical replicate 2, biological replicate BR2
[10] = technical replicate 2, biological replicate BR3
[11] = technical replicate 3, biological replicate BR1
[12] = technical replicate 3, biological replicate BR2
[13] = technical replicate 3, biological replicate BR3

| Substance | Antimicrobial Activity (MIC) E. coli [1] [µg/mL] | MIC E. coli ATCC 25922 [1, 5] [µg/mL] | MIC E. coli ATCC 25922 [1, 6] [µg/mL] | MIC E. coli ATCC 25922 [1, 7] [µg/mL] | MIC E. coli ATCC 25922 [1, 8] [µg/mL] | MIC E. coli ATCC 25922 [1, 9] [µg/mL] | MIC E. coli ATCC 25922 [1, 10] [µg/mL] | MIC E. coli ATCC 25922 [1, 11] [µg/mL] | MIC E. coli ATCC 25922 [1, 12] [µg/mL] | MIC E. coli ATCC 25922 [1, 13] [µg/mL] | Antimicrobial Activity (MIC) S. aureus [2] [µg/mL] | MIC S. aureus ATCC 9144 [2, 5] [µg/mL] | MIC S. aureus ATCC 9144 [2, 6] [µg/mL] | MIC S. aureus ATCC 9144 [2, 7] [µg/mL] | MIC S. aureus ATCC 9144 [2, 8] [µg/mL] | MIC S. aureus ATCC 9144 [2, 9] [µg/mL] | MIC S. aureus ATCC 9144 [2, 10] [µg/mL] | MIC S. aureus ATCC 9144 [2, 11] [µg/mL] | MIC S. aureus ATCC 9144 [2, 12] [µg/mL] | MIC S. aureus ATCC 9144 [2, 13] [µg/mL] | further results |
| --- | --- | --- | --- | --- | --- | --- | --- | --- | --- | --- | --- | --- | --- | --- | --- | --- | --- | --- | --- | --- | --- |
| N3-PEG200-RWWRF [1a, azidopeptide N3-PEG200-RWWRF, PEG200-linked, amidated C-terminus] | 256 | 128 | 256 | 256 | 128 | 256 | 256 | 128 | 256 | 256 | 64 | 64 | 64 | 64 | 64 | 64 | 64 | 64 | 64 | 64 | MIC S. epidermidis 1457 [3, 5]: 32 µg/mL; MIC S. epidermidis 1457 [3, 6]: 32 µg/mL; MIC S. epidermidis 1457 [3, 7]: 32 µg/mL; MIC S. epidermidis 1457 [3, 8]: 32 µg/mL; MIC S. epidermidis 1457 [3, 9]: 32 µg/mL; MIC S. epidermidis 1457 [3, 10]: 32 µg/mL; MIC S. epidermidis 1457 [3, 11]: 32 µg/mL; MIC S. epidermidis 1457 [3, 12]: 32 µg/mL; MIC S. epidermidis 1457 [3, 13]: 32 µg/mL; Antimicrobial Activity (MIC) S. epidermidis [3]: 32 µg/mL; Antimicrobial Activity (MIC) P. aeruginosa [4]: 256 µg/mL; MIC P. aeruginosa ATCC 27853 [4, 5]: 256 µg/mL; MIC P. aeruginosa ATCC 27853 [4, 6]: 256 µg/mL; MIC P. aeruginosa ATCC 27853 [4, 7]: 256 µg/mL; MIC P. aeruginosa ATCC 27853 [4, 8]: 256 µg/mL; MIC P. aeruginosa ATCC 27853 [4, 9]: 256 µg/mL; MIC P. aeruginosa ATCC 27853 [4, 10]: 256 µg/mL; MIC P. aeruginosa ATCC 27853 [4, 11]: 256 µg/mL; MIC P. aeruginosa ATCC 27853 [4, 12]: 256 µg/mL; MIC P. aeruginosa ATCC 27853 [4, 13]: 256 µg/mL |
| N3-PEG400-RBBRF [2b, azidopeptide N3-PEG400-RBBRF, B = biphenylalanine, amidated C-terminus] | 128 | 128 | 128 | 128 | 128 | 128 | 128 | 128 | 128 | 128 | 32 | 16 | 32 | 16 | 16 | 32 | 32 | 16 | 32 | 32 | MIC S. epidermidis 1457 [3, 5]: 16 µg/mL; MIC S. epidermidis 1457 [3, 6]: 16 µg/mL; MIC S. epidermidis 1457 [3, 7]: 16 µg/mL; MIC S. epidermidis 1457 [3, 8]: 16 µg/mL; MIC S. epidermidis 1457 [3, 9]: 16 µg/mL; MIC S. epidermidis 1457 [3, 10]: 16 µg/mL; MIC S. epidermidis 1457 [3, 11]: 16 µg/mL; MIC S. epidermidis 1457 [3, 12]: 16 µg/mL; MIC S. epidermidis 1457 [3, 13]: 16 µg/mL; Antimicrobial Activity (MIC) S. epidermidis [3]: 16 µg/mL; Antimicrobial Activity (MIC) P. aeruginosa [4]: 256 µg/mL; MIC P. aeruginosa ATCC 27853 [4, 5]: 128 µg/mL; MIC P. aeruginosa ATCC 27853 [4, 6]: 256 µg/mL; MIC P. aeruginosa ATCC 27853 [4, 7]: 256 µg/mL; MIC P. aeruginosa ATCC 27853 [4, 8]: 128 µg/mL; MIC P. aeruginosa ATCC 27853 [4, 9]: 256 µg/mL; MIC P. aeruginosa ATCC 27853 [4, 10]: 256 µg/mL; MIC P. aeruginosa ATCC 27853 [4, 11]: 128 µg/mL; MIC P. aeruginosa ATCC 27853 [4, 12]: 256 µg/mL; MIC P. aeruginosa ATCC 27853 [4, 13]: 256 µg/mL |
